In ChEMBL document CHEMBL5614394, “Novel pleuromutilin derivatives conjugated with phenyl-sulfide and boron-containing moieties as potent antibacterial agents against antibiotic-resistant bacteria” (Eur J Med Chem, 2024):
≈ marks a conversion by molar mass, not a printed value.

What was measured:
Staphylococcus aureus = assay: Antibacterial activity against Staphylococcus aureus ATCC 29213 assessed as inhibition of visible growth of bacteria incubated for 24 hrs by CLSI protocol based broth-dilution method; format: functional
[1] = test system: Staphylococcus epidermidis; assay: Antibacterial activity against Staphylococcus epidermidis ATCC 12228 assessed as inhibition of visible growth of bacteria incubated for 24 hrs by CLSI protocol based broth-dilution method; format: functional

Row | Compound | MIC (Staphylococcus aureus) | MIC [1]
1 | 22-(3-(((5-Borono-3-pyridinyl)carbonyl)amino)phenylsulfanyl)-22-deoxypleuromutilin | 0.25 µg/mL | 0.25 µg/mL
2 | C=C[C@]1(C)C[C@@H](OC(=O)CSc2cccc(NC(=O)c3ccc(OC)c(B(O)O)c3)c2)[C@]2(C)[C@H](C)CC[C@]3(CCC(=O)[C@H]32)[C@@H](C)[C@@H]1O | 0.031 µg/mL (≈ 0.0467 µM) | 0.031 µg/mL (≈ 0.0467 µM)
3 | C=C[C@]1(C)C[C@@H](OC(=O)CSc2cccc(NC(=O)c3ccc(C)c(B(O)O)c3)c2)[C@]2(C)[C@H](C)CC[C@]3(CCC(=O)[C@H]32)[C@@H](C)[C@@H]1O | 0.031 µg/mL (≈ 0.0479 µM) | 0.031 µg/mL (≈ 0.0479 µM)
4 | C=C[C@]1(C)C[C@@H](OC(=O)CSc2cccc(NCc3ccc(B(O)O)cc3)c2)[C@]2(C)[C@H](C)CC[C@]3(CCC(=O)[C@H]32)[C@@H](C)[C@@H]1O | 0.063 µg/mL (≈ 0.102 µM) | 0.063 µg/mL (≈ 0.102 µM)
5 | C=C[C@]1(C)C[C@@H](OC(=O)CSc2cccc(NC(=O)c3cc(OC)cc(B(O)O)c3)c2)[C@]2(C)[C@H](C)CC[C@]3(CCC(=O)[C@H]32)[C@@H](C)[C@@H]1O | 0.031 µg/mL (≈ 0.0467 µM) | 0.031 µg/mL (≈ 0.0467 µM)
6 | C=C[C@]1(C)C[C@@H](OC(=O)CSc2ccc(NC(=O)c3cc(B(O)O)ccc3F)cc2)[C@]2(C)[C@H](C)CC[C@]3(CCC(=O)[C@H]32)[C@@H](C)[C@@H]1O | 0.063 µg/mL (≈ 0.0967 µM) | 1 µg/mL (≈ 1.53 µM)
7 | C=C[C@]1(C)C[C@@H](OC(=O)CSc2cccc(NC(=O)c3ccc(B(O)O)o3)c2)[C@]2(C)[C@H](C)CC[C@]3(CCC(=O)[C@H]32)[C@@H](C)[C@@H]1O | 0.5 µg/mL (≈ 0.802 µM) | 0.063 µg/mL (≈ 0.101 µM)
8 | C=C[C@]1(C)C[C@@H](OC(=O)CSc2cccc(NC(=O)c3ccc(B(O)O)cc3F)c2)[C@]2(C)[C@H](C)CC[C@]3(CCC(=O)[C@H]32)[C@@H](C)[C@@H]1O | 0.063 µg/mL (≈ 0.0967 µM) | 0.063 µg/mL (≈ 0.0967 µM)
9 | C=C[C@]1(C)C[C@@H](OC(=O)CSc2cccc(NC(=O)c3ccc(B(O)O)cc3[N+](=O)[O-])c2)[C@]2(C)[C@H](C)CC[C@]3(CCC(=O)[C@H]32)[C@@H](C)[C@@H]1O | 0.25 µg/mL (≈ 0.368 µM) | 0.25 µg/mL (≈ 0.368 µM)
10 | C=C[C@]1(C)C[C@@H](OC(=O)CSc2cccc(NC(=O)c3ccc(B(O)O)c(F)c3F)c2)[C@]2(C)[C@H](C)CC[C@]3(CCC(=O)[C@H]32)[C@@H](C)[C@@H]1O | 0.031 µg/mL (≈ 0.0463 µM) | 0.031 µg/mL (≈ 0.0463 µM)
11 | C=C[C@]1(C)C[C@@H](OC(=O)CS[C@@H]2CC[C@@H](NC(=O)c3ccc4c(c3)B(O)OC4)C[C@H]2O)[C@]2(C)[C@H](C)CC[C@]3(CCC(=O)[C@H]32)[C@@H](C)[C@@H]1O | 0.063 µg/mL (≈ 0.0944 µM) | 4 µg/mL (≈ 5.99 µM)
12 | C=C[C@]1(C)C[C@@H](OC(=O)CSc2ccc(NC(=O)c3ccc(B(O)O)c(F)c3)cc2)[C@]2(C)[C@H](C)CC[C@]3(CCC(=O)[C@H]32)[C@@H](C)[C@@H]1O | 0.063 µg/mL (≈ 0.0967 µM) | 16 µg/mL (≈ 24.6 µM)
13 | C=C[C@]1(C)C[C@@H](OC(=O)CSc2cccc(NC(=O)c3cc(F)cc(B(O)O)c3)c2)[C@]2(C)[C@H](C)CC[C@]3(CCC(=O)[C@H]32)[C@@H](C)[C@@H]1O | 0.031 µg/mL (≈ 0.0476 µM) | 0.031 µg/mL (≈ 0.0476 µM)
14 | C=C[C@]1(C)C[C@@H](OC(=O)CSc2cccc(NC(=O)Cc3cccc(B(O)O)c3)c2)[C@]2(C)[C@H](C)CC[C@]3(CCC(=O)[C@H]32)[C@@H](C)[C@@H]1O | 0.063 µg/mL (≈ 0.0973 µM) | 0.063 µg/mL (≈ 0.0973 µM)
15 | C=C[C@]1(C)C[C@@H](OC(=O)CSc2cccc(NC(=O)c3ccc(F)c(B(O)O)c3)c2)[C@]2(C)[C@H](C)CC[C@]3(CCC(=O)[C@H]32)[C@@H](C)[C@@H]1O | 0.063 µg/mL (≈ 0.0967 µM) | 16 µg/mL (≈ 24.6 µM)
16 | C=C[C@]1(C)C[C@@H](OC(=O)CSc2ccccc2NC(=O)c2ccc3c(c2)B(O)OC3)[C@]2(C)[C@H](C)CC[C@]3(CCC(=O)[C@H]32)[C@@H](C)[C@@H]1O | 0.063 µg/mL (≈ 0.0976 µM) | 1 µg/mL (≈ 1.55 µM)
17 | C=C[C@]1(C)C[C@@H](OC(=O)CSc2cccc(NC(=O)c3cccc(B(O)O)c3)c2)[C@]2(C)[C@H](C)CC[C@]3(CCC(=O)[C@H]32)[C@@H](C)[C@@H]1O | 0.063 µg/mL (≈ 0.0994 µM) | 0.063 µg/mL (≈ 0.0994 µM)
18 | C=C[C@]1(C)C[C@@H](OC(=O)CSc2cccc(NC(=O)c3ccc(B(O)O)c(Cl)c3)c2)[C@]2(C)[C@H](C)CC[C@]3(CCC(=O)[C@H]32)[C@@H](C)[C@@H]1O | 0.063 µg/mL (≈ 0.0943 µM) | 1 µg/mL (≈ 1.5 µM)
19 | C=C[C@]1(C)C[C@@H](OC(=O)CSc2cccc(NC(=O)c3cc(F)c(B(O)O)c(F)c3)c2)[C@]2(C)[C@H](C)CC[C@]3(CCC(=O)[C@H]32)[C@@H](C)[C@@H]1O | 0.031 µg/mL (≈ 0.0463 µM) | 0.031 µg/mL (≈ 0.0463 µM)
20 | C=C[C@]1(C)C[C@@H](OC(=O)CSc2cccc(NC(=O)Cc3ccc(B(O)O)cc3)c2)[C@]2(C)[C@H](C)CC[C@]3(CCC(=O)[C@H]32)[C@@H](C)[C@@H]1O | 0.063 µg/mL (≈ 0.0973 µM) | 0.063 µg/mL (≈ 0.0973 µM)

Row | Compound | MIC (Staphylococcus aureus) | MIC [1]
21 | C=C[C@]1(C)C[C@@H](OC(=O)CSc2ccc(NC(=O)c3cccc(B(O)O)c3)cc2)[C@]2(C)[C@H](C)CC[C@]3(CCC(=O)[C@H]32)[C@@H](C)[C@@H]1O | 0.031 µg/mL (≈ 0.0489 µM) | 0.031 µg/mL (≈ 0.0489 µM)
22 | C=C[C@]1(C)C[C@@H](OC(=O)CSc2cccc(NC(=O)c3ccc(B4OC(C)(C)C(C)(C)O4)cc3)c2)[C@]2(C)[C@H](C)CC[C@]3(CCC(=O)[C@H]32)[C@@H](C)[C@@H]1O | 0.063 µg/mL (≈ 0.088 µM) | 0.063 µg/mL (≈ 0.088 µM)
23 | C=C[C@]1(C)C[C@@H](OC(=O)CSc2ccc(NC(=O)c3ccc(F)c(B(O)O)c3)cc2)[C@]2(C)[C@H](C)CC[C@]3(CCC(=O)[C@H]32)[C@@H](C)[C@@H]1O | 0.063 µg/mL (≈ 0.0967 µM) | 16 µg/mL (≈ 24.6 µM)
24 | C=C[C@]1(C)C[C@@H](OC(=O)CSc2cccc(NC(=O)c3cccc(B4OC(C)(C)C(C)(C)O4)c3)c2)[C@]2(C)[C@H](C)CC[C@]3(CCC(=O)[C@H]32)[C@@H](C)[C@@H]1O | 0.063 µg/mL (≈ 0.088 µM) | 0.063 µg/mL (≈ 0.088 µM)
25 | C=C[C@]1(C)C[C@@H](OC(=O)CSc2cccc(NC(=O)c3cc(N)cc(B(O)O)c3)c2)[C@]2(C)[C@H](C)CC[C@]3(CCC(=O)[C@H]32)[C@@H](C)[C@@H]1O | 0.063 µg/mL (≈ 0.0971 µM) | 0.063 µg/mL (≈ 0.0971 µM)
26 | C=C[C@]1(C)C[C@@H](OC(=O)CSc2cccc(NCc3ccccc3B(O)O)c2)[C@]2(C)[C@H](C)CC[C@]3(CCC(=O)[C@H]32)[C@@H](C)[C@@H]1O | 0.031 µg/mL (≈ 0.05 µM) | 0.031 µg/mL (≈ 0.05 µM)
27 | C=C[C@]1(C)C[C@@H](OC(=O)CSc2cccc(NC(=O)c3cc(B(O)O)cc(C(F)(F)F)c3)c2)[C@]2(C)[C@H](C)CC[C@]3(CCC(=O)[C@H]32)[C@@H](C)[C@@H]1O | 0.063 µg/mL (≈ 0.0898 µM) | 0.5 µg/mL (≈ 0.713 µM)
28 | C=C[C@]1(C)C[C@@H](OC(=O)CSc2cccc(NC(=O)c3ccc(B(O)O)c(OC)c3)c2)[C@]2(C)[C@H](C)CC[C@]3(CCC(=O)[C@H]32)[C@@H](C)[C@@H]1O | 0.031 µg/mL (≈ 0.0467 µM) | 0.031 µg/mL (≈ 0.0467 µM)
29 | C=C[C@]1(C)C[C@@H](OC(=O)CSc2cccc(NC(=O)c3cc(B(O)O)ccc3OC)c2)[C@]2(C)[C@H](C)CC[C@]3(CCC(=O)[C@H]32)[C@@H](C)[C@@H]1O | 0.031 µg/mL (≈ 0.0467 µM) | 0.031 µg/mL (≈ 0.0467 µM)
30 | C=C[C@]1(C)C[C@@H](OC(=O)CSc2cccc(NC(=O)c3ccc(B(O)O)s3)c2)[C@]2(C)[C@H](C)CC[C@]3(CCC(=O)[C@H]32)[C@@H](C)[C@@H]1O | 0.063 µg/mL (≈ 0.0985 µM) | 0.063 µg/mL (≈ 0.0985 µM)
31 | C=C[C@]1(C)C[C@@H](OC(=O)CSc2cccc(NC(=O)c3ccc(B(O)O)cc3Cl)c2)[C@]2(C)[C@H](C)CC[C@]3(CCC(=O)[C@H]32)[C@@H](C)[C@@H]1O | 0.063 µg/mL (≈ 0.0943 µM) | 1 µg/mL (≈ 1.5 µM)
32 | C=C[C@]1(C)C[C@@H](OC(=O)CSc2cccc(NC(=O)c3cc(B(O)O)ccc3F)c2)[C@]2(C)[C@H](C)CC[C@]3(CCC(=O)[C@H]32)[C@@H](C)[C@@H]1O | 0.063 µg/mL (≈ 0.0967 µM) | 0.063 µg/mL (≈ 0.0967 µM)
33 | C=C[C@]1(C)C[C@@H](OC(=O)CSc2cccc(NC(=O)c3cc(C)cc(B(O)O)c3)c2)[C@]2(C)[C@H](C)CC[C@]3(CCC(=O)[C@H]32)[C@@H](C)[C@@H]1O | 0.031 µg/mL (≈ 0.0479 µM) | 0.031 µg/mL (≈ 0.0479 µM)
34 | C=C[C@]1(C)C[C@@H](OC(=O)CSc2cccc(NCc3cccc(B(O)O)c3)c2)[C@]2(C)[C@H](C)CC[C@]3(CCC(=O)[C@H]32)[C@@H](C)[C@@H]1O | 0.063 µg/mL (≈ 0.102 µM) | 0.125 µg/mL (≈ 0.202 µM)
35 | C=C[C@]1(C)C[C@@H](OC(=O)CSc2ccc(NC(=O)c3ccc(B(O)O)cc3F)cc2)[C@]2(C)[C@H](C)CC[C@]3(CCC(=O)[C@H]32)[C@@H](C)[C@@H]1O | 0.063 µg/mL (≈ 0.0967 µM) | 4 µg/mL (≈ 6.14 µM)
36 | C=C[C@]1(C)C[C@@H](OC(=O)CSc2ccc(NC(=O)c3ccc(B(O)O)cc3)cc2)[C@]2(C)[C@H](C)CC[C@]3(CCC(=O)[C@H]32)[C@@H](C)[C@@H]1O | 0.063 µg/mL (≈ 0.0994 µM) | 0.5 µg/mL (≈ 0.789 µM)
37 | C=C[C@]1(C)C[C@@H](OC(=O)CSc2cccc(NC(=O)c3ccc(B(O)O)c(F)c3)c2)[C@]2(C)[C@H](C)CC[C@]3(CCC(=O)[C@H]32)[C@@H](C)[C@@H]1O | 0.063 µg/mL (≈ 0.0967 µM) | 16 µg/mL (≈ 24.6 µM)
38 | C=C[C@]1(C)C[C@@H](OC(=O)CSc2ccc(NC(=O)c3ccc4c(c3)B(O)OC4)cc2)[C@]2(C)[C@H](C)CC[C@]3(CCC(=O)[C@H]32)[C@@H](C)[C@@H]1O | 0.016 µg/mL (≈ 0.0248 µM) | 0.25 µg/mL (≈ 0.387 µM)
39 | C=C[C@]1(C)C[C@@H](OC(=O)CSc2cccc(NC(=O)c3ccc(B(O)O)c([N+](=O)[O-])c3)c2)[C@]2(C)[C@H](C)CC[C@]3(CCC(=O)[C@H]32)[C@@H](C)[C@@H]1O | 0.063 µg/mL (≈ 0.0928 µM) | 0.063 µg/mL (≈ 0.0928 µM)
